Measured values published in patent US8829007B2 (priority 2009, dated 2014).
Like-named read-outs stand apart in the source and are kept apart here.

Tests used:
[1] = tested on: influenza A virus (A/PR/8/34); test: microbe, parasite or virus in culture; format: cell-based; conditions: read-out: IC50 (mean all)
[2] = tested on: A/PR/8/34 influenza virus; test: microbe, parasite or virus in culture; format: cell-based; conditions: read-out: EC50 (mean all)
[3] = Influenza A virus, PR/8, MDCK, MDCK cells infected with A/PR/8/34, survival of infected cells, class symbols
[4] = Influenza A virus, PR/8, MDCK, MDCK cells infected with A/PR/8/34, replication of influenza virus (viral RNA, bDNA), class symbols
[5] = MDCK cells infected with A/PR/8/34, survival of infected cells, class symbols
[6] = MDCK cells infected with A/PR/8/34, replication of influenza virus (viral RNA, bDNA), class symbols
[7] = Influenza A virus, PR/8, MDCK, CPE assay, A/PR/8/34 infected MDCK cells, class symbols
[8] = Influenza A virus, PR/8, MDCK, bDNA assay, A/PR/8/34 influenza virus replication in MDCK cells, class symbols
[9] = CPE assay, A/PR/8/34 infected MDCK cells, class symbols
[10] = bDNA assay, A/PR/8/34 influenza virus replication in MDCK cells, class symbols

CCOC(=O)[C@H]1CCCC[C@@H]1Nc1nc(-c2c[nH]c3ncc(Cl)cc23)ncc1F [Compound 561, (1S,2S)-ethyl 2-(2-(5-chloro-1H-pyrrolo[2,3-b]pyridin-3-yl)-5-fluoropyrimidin-4-ylamino)cyclohexanecarboxylate]
IC50 [1, 3]: 5 to 20 µM
EC50 [2, 4]: < 5 µM

CC1(O)CCCCC1Nc1nc(-c2c[nH]c3ncc(Cl)cc23)ncc1F (stereo not drawn) [Compound 562, 2-(2-(5-chloro-1H-pyrrolo[2,3-b]pyridin-3-yl)-5-fluoropyrimidin-4-ylamino)-1-methylcyclohexanol]
IC50 [1, 3]: > 10 µM
EC50 [2, 4]: < 5 µM

O=C(O)[C@H]1CC[C@@H](Nc2nc(-c3c[nH]c4ncc(Cl)cc34)ncc2F)C1 [Compound 565]
IC50 [1, 3]: 5 to 20 µM
EC50 [2, 4]: < 5 µM

O=C(O)[C@@H]1CC[C@H](Nc2nc(-c3c[nH]c4ncc(Cl)cc34)ncc2F)C1 [Compound 566]
IC50 [1, 3]: < 5 µM
EC50 [2, 4]: < 5 µM

NC(=O)CN1CCC[C@H](Nc2nc(-c3c[nH]c4ncc(Cl)cc34)ncc2F)C1 [Compound 567]
IC50 [1, 3]: < 5 µM
EC50 [2, 4]: < 5 µM

CC(C)OC(=O)[C@@H]1CCCC[C@H]1Nc1nc(-c2c[nH]c3ncc(Cl)cc23)ncc1F [Compound 568, (1R,2R)-isopropyl 2-(2-(5-chloro-1H-pyrrolo[2,3-b]pyridin-3-yl)-5-fluoropyrimidin-4-ylamino)cyclohexanecarboxylate]
IC50 [1, 3]: > 10 µM
EC50 [2, 4]: > 10 µM

CC(C)OC(=O)[C@H]1CCCC[C@@H]1Nc1nc(-c2c[nH]c3ncc(Cl)cc23)ncc1F [Compound 569, (1S,2S)-isopropyl 2-(2-(5-chloro-1H-pyrrolo[2,3-b]pyridin-3-yl)-5-fluoropyrimidin-4-ylamino)cyclohexanecarboxylate]
IC50 [1, 3]: > 10 µM
EC50 [2, 4]: > 10 µM

COC(=O)N[C@@H]1CCC[C@H](Nc2nc(-c3c[nH]c4ncc(Cl)cc34)ncc2F)C1 [Compound 570, methyl N-[(1R,3S)-3-[[2-(5-chloro-1H-pyrrolo[2,3-b]pyridin-3-yl)-5-fluoro-pyrimidin-4-yl]amino]cyclohexyl]carbamate]
IC50 [1, 3]: < 5 µM
EC50 [2, 4]: < 5 µM

CC1(O)CCC[C@H](Nc2nc(-c3c[nH]c4ncc(Cl)cc34)ncc2F)C1 (stereo partly drawn) [Compound 571]
IC50 [1, 5]: < 5 µM
EC50 [2, 6]: < 5 µM

CC1(O)CCC[C@H](Nc2nc(-c3c[nH]c4ncc(Cl)cc34)ncc2F)C1 (stereo partly drawn) [Compound 572]
IC50 [1, 5]: < 5 µM
EC50 [2, 6]: < 5 µM

O=C(O)[C@@H]1CCCC[C@@H]1Nc1nc(-c2c[nH]c3ncc(Cl)cc23)ncc1F [Compound 578, (1R,2S)-2-(2-(5-chloro-1H-pyrrolo[2,3-b]pyridin-3-yl)-5-fluoropyrimidin-4-ylamino)cyclohexanecarboxylic acid]
IC50 [1, 3]: < 5 µM
EC50 [2, 4]: < 5 µM

OC[C@@H](O)CN1CCCC(Nc2nc(-c3c[nH]c4ncc(Cl)cc34)ncc2F)C1 (stereo partly drawn) [Compound 587]
IC50 [1, 3]: < 5 µM
EC50 [2, 4]: < 5 µM

COCC(=O)N[C@@H]1CCC[C@H](Nc2nc(-c3c[nH]c4ncc(Cl)cc34)ncc2F)C1 [Compound 591, N-[(1R,3S)-3-[[2-(5-chloro-1H-pyrrolo[2,3-b]pyridin-3-yl)-5-fluoro-pyrimidin-4-yl]amino]cyclohexyl]-2-methoxy-acetamide]
IC50 [1, 3]: < 5 µM
EC50 [2, 4]: < 5 µM

Fc1cnc(-c2c[nH]c3ncc(Cl)cc23)nc1NC1CCCN(Cc2cnc[nH]2)C1 (stereo not drawn) [Compound 594, N-(1-((1H-imidazol-5-yl)methyl)piperidin-3-yl)-2-(5-chloro-1H-pyrrolo[2,3-b]pyridin-3-yl)-5-fluoropyrimidin-4-amine]
IC50 [1, 3]: < 5 µM
EC50 [2, 4]: < 5 µM

COCCN1CCCC(Nc2nc(-c3c[nH]c4ncc(Cl)cc34)ncc2F)C1 (stereo not drawn) [Compound 595]
IC50 [1, 7]: < 5 µM
EC50 [2, 8]: < 5 µM

CC(C)(C(N)=O)N1CCC[C@H](Nc2nc(-c3c[nH]c4ncc(Cl)cc34)ncc2F)C1 [Compound 598]
IC50 [1, 7]: < 5 µM
EC50 [2, 8]: < 5 µM

CNC(=O)C(C)(C)N1CCC[C@H](Nc2nc(-c3c[nH]c4ncc(Cl)cc34)ncc2F)C1 [Compound 599]
IC50 [1, 7]: < 5 µM
EC50 [2, 8]: < 5 µM

CN(C)C(=O)C(C)(C)N1CCC[C@H](Nc2nc(-c3c[nH]c4ncc(Cl)cc34)ncc2F)C1 [Compound 600]
IC50 [1, 7]: < 5 µM
EC50 [2, 8]: < 5 µM

COCCNC(=O)C(C)(C)N1CCC[C@H](Nc2nc(-c3c[nH]c4ncc(Cl)cc34)ncc2F)C1 [Compound 601]
IC50 [1, 7]: < 5 µM
EC50 [2, 8]: < 5 µM

CC(C)(C(=O)NC1CC1)N1CCC[C@H](Nc2nc(-c3c[nH]c4ncc(Cl)cc34)ncc2F)C1 [Compound 602]
IC50 [1, 7]: < 5 µM
EC50 [2, 8]: < 5 µM

NC(=O)C(O)CN1CCCC(Nc2nc(-c3c[nH]c4ncc(Cl)cc34)ncc2F)C1 [Compound 603, 3-((S)-3-((2-(5-chloro-1H-pyrrolo[2,3-b]pyridin-3-yl)-5-fluoropyrimidin-4-ylamino)piperidin-1-yl)-2-hydroxypropanamide]
IC50 [1, 7]: < 5 µM
EC50 [2, 8]: < 5 µM

O=C(O)C1CNCCC1Nc1nc(-c2c[nH]c3ncc(Cl)cc23)ncc1F (stereo not drawn) [Compound 605]
IC50 [1, 9]: > 10 µM
EC50 [2, 10]: > 3.3 µM

CNC(=O)C(C)N1CCCC(Nc2nc(-c3c[nH]c4ncc(Cl)cc34)ncc2F)C1 [Compound 606, 2-((S)-3-((2-(5-chloro-1H-pyrrolo[2,3-b]pyridin-3-yl)-5-fluoropyrimidin-4-ylamino)piperidin-1-yl)-N-methylpropanamide]
IC50 [1, 7]: < 5 µM
EC50 [2, 8]: < 5 µM

CC(=O)N1CCC(Nc2nc(-c3c[nH]c4ncc(Cl)cc34)ncc2F)C(C(=O)O)C1 (stereo not drawn) [Compound 607]
IC50 [1, 9]: > 10 µM
EC50 [2, 10]: > 3.3 µM

CCNC(=O)OC1CCCC(Nc2nc(-c3c[nH]c4ncc(Cl)cc34)ncc2F)C1 (stereo not drawn) [Compound 608, 3-((2-(5-chloro-1H-pyrrolo[2,3-b]pyridin-3-yl)-5-fluoropyrimidin-4-ylamino)cyclohexyl ethylcarbamate]
IC50 ([1]; Influenza A virus, PR/8, MDCK): < 5 µM
EC50 ([2]; Influenza A virus, PR/8, MDCK): < 5 µM

COCC(O)CN[C@@H]1CCC[C@H](Nc2nc(-c3c[nH]c4ncc(Cl)cc34)ncc2F)C1 (stereo partly drawn) [Compound 610, 1-[[(1R,3S)-3-[[2-(5-chloro-1H-pyrrolo[2,3-b]pyridin-3-yl)-5-fluoro-pyrimidin-4-yl]amino]cyclohexyl]amino]-3-methoxy-propan-2-ol]
IC50 [1, 7]: < 5 µM
EC50 [2, 8]: > 3.3 µM

COCCC(=O)N[C@@H]1CCC[C@H](Nc2nc(-c3c[nH]c4ncc(Cl)cc34)ncc2F)C1 [Compound 611]
IC50 [1, 7]: < 5 µM
EC50 [2, 8]: < 5 µM

NC(=O)CN1CCCC(Nc2nc(-c3c[nH]c4ncc(F)cc34)ncc2F)C1 (stereo not drawn) [Compound 613]
IC50 [1, 9]: < 5 µM
EC50 [2, 10]: < 5 µM

OC(CN1CCCC(Nc2nc(-c3c[nH]c4ncc(Cl)cc34)ncc2F)C1)C(F)(F)F (stereo not drawn) [Compound 614]
IC50 [1, 9]: < 5 µM
EC50 [2, 10]: < 5 µM

O[C@H]1[C@@H](Nc2nc(-c3c[nH]c4ncc(Cl)cc34)ncc2F)CCC[C@@H]1O [Compound 615]
IC50 [1, 7]: < 5 µM
EC50 [2, 8]: < 5 µM

O[C@H]1[C@H](O)CCC[C@H]1Nc1nc(-c2c[nH]c3ncc(Cl)cc23)ncc1F [Compound 616]
IC50 [1, 7]: > 10 µM
EC50 [2, 8]: > 3.3 µM

C#CC1(O)CCCC(Nc2nc(-c3c[nH]c4ncc(Cl)cc34)ncc2F)C1 (stereo not drawn) [Compound 617]
IC50 [1, 9]: < 5 µM
EC50 [2, 10]: < 5 µM

C#CC1(O)CCCC(Nc2nc(-c3c[nH]c4ncc(Cl)cc34)ncc2F)C1 (stereo not drawn) [Compound 618]
IC50 [1, 9]: < 5 µM
EC50 [2, 10]: < 5 µM

O=C1NCC(CN2CCCC(Nc3nc(-c4c[nH]c5ncc(Cl)cc45)ncc3F)C2)O1 (stereo not drawn) [Compound 619]
IC50 [1, 9]: < 5 µM
EC50 [2, 10]: < 5 µM

Cc1cnc(-c2c[nH]c3ncc(Cl)cc23)nc1N[C@H]1CCCN(CC(N)=O)C1 [Compound 620]
IC50 [1, 7]: 5 to 20 µM
EC50 [2, 8]: < 5 µM

Fc1cnc(-c2c[nH]c3ncc(Cl)cc23)nc1NC1CCCN(CC2CCOCC2)C1 (stereo not drawn) [Compound 621]
IC50 [1, 9]: < 5 µM
EC50 [2, 10]: < 5 µM

Fc1cnc(-c2c[nH]c3ncc(Cl)cc23)nc1NC1CCCN(CC2CCOC2)C1 (stereo not drawn) [Compound 622]
IC50 [1, 9]: < 5 µM
EC50 [2, 10]: < 5 µM

O=C(C(O)CO)N1CCCC(Nc2nc(-c3c[nH]c4ncc(Cl)cc34)ncc2F)C1 (stereo not drawn) [Compound 623]
IC50 [1, 9]: < 5 µM
EC50 [2, 10]: < 5 µM

O[C@@H]1[C@@H](O)CCC[C@H]1Nc1nc(-c2c[nH]c3ncc(Cl)cc23)ncc1F [Compound 624]
IC50 [1, 7]: < 5 µM
EC50 [2, 8]: 5 to 10 µM

O[C@H]1[C@H](O)CCC[C@@H]1Nc1nc(-c2c[nH]c3ncc(Cl)cc23)ncc1F [Compound 625]
IC50 [1, 7]: < 5 µM
EC50 [2, 8]: < 5 µM

CCC1(O)CCCC(Nc2nc(-c3c[nH]c4ncc(Cl)cc34)ncc2F)C1 (stereo not drawn) [Compound 626]
IC50 [1, 7]: < 5 µM
EC50 [2, 8]: < 5 µM

C=CC1(O)CCCC(Nc2nc(-c3c[nH]c4ncc(Cl)cc34)ncc2F)C1 (stereo not drawn) [Compound 627]
IC50 [1, 9]: < 5 µM
EC50 [2, 10]: < 5 µM

C=CC1(O)CCCC(Nc2nc(-c3c[nH]c4ncc(Cl)cc34)ncc2F)C1 (stereo not drawn) [Compound 628]
IC50 [1, 9]: < 5 µM
EC50 [2, 10]: < 5 µM

CC(C)(C)c1nc(-c2c[nH]c3ncc(Cl)cc23)nc(N[C@H]2CCCC[C@@H]2C(=O)O)c1F [Compound 629, (1S,2S)-2-(6-tert-butyl-2-(5-chloro-1H-pyrrolo[2,3-b]pyridin-3-yl)-5-fluoropyrimidin-4-ylamino)cyclohexanecarboxylic acid]
IC50 [1, 7]: < 5 µM
EC50 [2, 8]: < 5 µM

O=C(O)[C@@H]1CCC[C@H](Nc2nc(-c3c[nH]c4ncc(Cl)cc34)ncc2F)C1 [Compound 630]
IC50 [1, 7]: < 5 µM
EC50 [2, 8]: < 5 µM
